Source: patent publication US20200369728A1, “PEPTIDOMIMETIC MACROCYCLES AND USES THEREOF” (Aileron Therapeutics, Inc., priority 2015, published 2020)
“And” between values parts separate entries of the source, which are not always exact repeats. Equal values may be shown once. Bridge positions count the residues as written; N and C are the ends. Square brackets hold non-standard residues; d marks the D form. Ends that are not written are not given here. Peptide text beside a SMILES is read from it. Phe(4-COOH) = N[C@@H](Cc1ccc(C(=O)O)cc1)C(=O)O; R8 = C=CCCCCCC[C@@](C)(N)C(=O)O; Cba = N[C@@H](CC1CCC1)C(=O)O; S5 = C=CCCC[C@](C)(N)C(=O)O

Assays:
[1] = Circular dichroism (CD) analysis of alpha-helicity; type: physicochemical; conditions: for Molar Ellipticity TFE − Molar Ellipticity Benign / Molar Ellipticity 50% TFE (222 in 50% TFE) / Molar Ellipticity Benign (222 in 0% TFE): 222 nm; for Molar Ellipticity 50% TFE (222 in 50% TFE): CD buffer with 50% TFE; for Molar Ellipticity 50% TFE (222 in 50% TFE) / Molar Ellipticity Benign (222 in 0% TFE): 0.05 mg/ml, 4° C.; for Molar Ellipticity Benign (222 in 0% TFE): benign CD buffer (20 mM phosphoric acid, pH 2); for % Helix benign compared to 50% TFE parent (CD): benign buffer
Method: Peptide solutions were analyzed by CD spectroscopy using a Jasco J-815 spectropolarimeter (Jasco Inc., Easton, Md.) with the Jasco Spectra Manager Ver. 2 system software. A Peltier temperature controller was used to maintain temperature control of the optical cell. Results are expressed as mean molar ellipticity (deg cm^2 dmol^−1) as calculated from the equation [0]=θobs·MRW/10*l*c where θobs is the observed ellipticity in millidegrees, MRW is the mean residue weight of the peptide (peptide molecular weight/number of residues), 1 is the optical path length of the cell in centimeters, and c is the peptide concentration in mg/ml. Peptide concentrations were determined by amino acid analysis. Stock solutions of peptides were prepared in benign CD buffer (20 mM phosphoric acid, pH 2). The stocks were used to prepare peptide solutions of 0.05 mg/ml in either benign CD buffer or CD buffer with 50% trifluoroethanol (TFE) for analyses in a 10 mm pathlength cell. Variable wavelength measurements of peptide solutions were scanned at 4° C. from 195 to 250 nm, in 0.2 nm increments, and a scan rate 50 nm per minute. The average of six scans was reported.

[2] = tested on: Caspase 3; assay: Caspase 3 detection assay in SJSA1 cells; type: cell-based; conditions: SJSA1, 48 h, Caspase 3 activation over DMSO-treated cells
[3] = tested on: SJSA-1 cells; assay: Cell lysis by peptidomimetic macrocycles (LDH release); type: cell-based; conditions: SJSA-1, 1 h
How it was run: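 Membrane lysis measured as supernatant LDH after a 1 h, 37 °C exposure of SJSA-1 cells, held in RPMI with 1% FBS, to macrocycles at final 6.25-50 μM with 0.5% DMSO. Lytic references were 10 μM melittin and 1% Triton X-100; DMSO alone served as non-lytic control.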

[4] = tested on: RKO; assay: Cell viability assay (MTT), RKO; conditions: read-out: RKO EC50 (72 h)
[5] = tested on: SJSA-1; assay: Cell viability assay (MTT), SJSA-1; conditions: read-out: SJSA-1 EC50 (72 h); 72 h, MTT
[6] = target: MDM2 (In-house, 41 kD) (UniProt Q00987); assay: competitive fluorescence polarization, displacement of FAM-labeled linear peptide from MDM2; grade decoded by the scale of Table 4
[7] = target: T1, MDMX (In-house, 40 kD) (UniProt O15151); assay: competitive fluorescence polarization, displacement of FAM-labeled linear peptide from MDMX; grade decoded by the scale of Table 4
T1 sequence (looked up): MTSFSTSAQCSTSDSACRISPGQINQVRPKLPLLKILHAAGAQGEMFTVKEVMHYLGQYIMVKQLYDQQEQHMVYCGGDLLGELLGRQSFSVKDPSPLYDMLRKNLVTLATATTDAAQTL

[8] = MCF-7 breast cancer xenograft study, body weight and deaths; type: in vivo, mice; conditions: for mice died during treatment: 10 mice per group
Text: A negative control stapled peptide.

[9] = tested on: DOHH-2; assay: WST-1 / MTT cell viability, DOHH-2; type: cell-based, human; conditions: for IC50: Homo sapiens, DOHH-2, 72 h
Method: Initially, various DOHH-2 cell numbers were plated and evaluated 3-7 days later to determine the optimal number of cells to be plated and treatment duration.
A drug combination index plot was used to assess the synergistic, additive, or antagonistic properties of each combination treatment. […] Combination index (CI) values were calculated using the CompuSyn software. The data were expressed as log(CI).
The anticancer activity of the combination treatment was assessed based on the order of addition of the drugs.

[10] = DOHH-2, sequential treatment, 72 hrs

Sequence of MDM2 (In-house, 41 kD) (Q00987 1-125 limits assumed): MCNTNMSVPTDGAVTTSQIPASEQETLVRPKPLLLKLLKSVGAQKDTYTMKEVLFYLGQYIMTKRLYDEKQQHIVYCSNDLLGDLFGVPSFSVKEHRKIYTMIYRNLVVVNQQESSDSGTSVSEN

CC[C@H](C)[C@H](NC(=O)[C@H](C)NC(=O)[C@H](C)NC(=O)[C@]1(C)CCC/C=C/CCCCCC[C@@](C)(NC(=O)[C@H](Cc2ccccc2)NC(=O)[C@@H](NC(=O)[C@H](CC(C)C)NC(C)=O)[C@@H](C)O)C(=O)N[C@@H](C)C(=O)N[C@@H](Cc2ccc(O)cc2)C(=O)N[C@@H](Cc2c[nH]c3ccccc23)C(=O)N[C@@H](C)C(=O)N[C@@H](CCC(N)=O)C(=O)N[C@@H](CC(C)C)C(=O)N1)C(=O)N[C@H](C)C(N)=O [compound 71]
% Helix 50% TFE compared to 50% TFE parent (CD) [1]: 123.7%
Molar Ellipticity TFE − Molar Ellipticity Benign [1]: −17835.9 deg cm^2 dmol^−1
Molar Ellipticity 50% TFE (222 in 50% TFE) [1]: −17957 deg cm^2 dmol^−1
Molar Ellipticity Benign (222 in 0% TFE) [1]: −121.2 deg cm^2 dmol^−1
% Helix benign compared to 50% TFE parent (CD) [1]: 0.8%
caspase 0.3 μM [2]: 0.95
caspase 1 μM [2]: 1.02
caspase 3 μM [2]: 3.68
caspase 10 μM [2]: 14.72
caspase 30 μM [2]: 23.52
6.25 μM % Lysed cells (1 h LDH) [3]: 0%
25 μM % Lysed cells (1 h LDH) [3]: 0%
50 μM % Lysed cells (1 h LDH) [3]: 0%
EC50 [4]: < 5 µM
EC50 [5]: < 5 µM

SP752, Ac-t$r5wya$r5f4CF3ekllr-NH2 (peptide)
IC50 [6]: > 0.1 µM and < 1 µM
IC50 [7]: > 1 µM

SP755, Ac-tawyanf4CF3e$r5llr$r5a-NH2 (peptide)
IC50 [6]: < 0.01 µM
IC50 [7]: > 1 µM

SP756, Ac-t$s8wyanf4CF3e$r5llr-NH2 (peptide)
IC50 [6]: > 0.01 µM and < 0.1 µM
IC50 [7]: > 1 µM

CCCC[C@H](NC(=O)[C@H](C)NC(=O)[C@H](C)NC(=O)[C@]1(C)CCC/C=C/CCCCCC[C@@](C)(NC(=O)[C@H](Cc2ccccc2)NC(=O)[C@@H](NC(=O)[C@H](CC(C)C)NC(C)=O)[C@@H](C)O)C(=O)N[C@@H](C)C(=O)N[C@@H](Cc2ccc(O)cc2)C(=O)N[C@@H](Cc2c[nH]c3ccccc23)C(=O)N[C@@H](C)C(=O)N[C@@H](CCC(N)=O)C(=O)N[C@@H](CC(C)C)C(=O)N1)C(=O)N[C@@H](C)C(N)=O [compound 69]
% Helix 50% TFE compared to 50% TFE parent (CD) [1]: 148.2%
Molar Ellipticity TFE − Molar Ellipticity Benign [1]: −21407.1 deg cm^2 dmol^−1
Molar Ellipticity 50% TFE (222 in 50% TFE) [1]: −21509.7 deg cm^2 dmol^−1
Molar Ellipticity Benign (222 in 0% TFE) [1]: −102.6 deg cm^2 dmol^−1
% Helix benign compared to 50% TFE parent (CD) [1]: 0.7%
caspase 0.3 μM [2]: 4.34
caspase 1 μM [2]: 9.51
caspase 3 μM [2]: 16.39
caspase 10 μM [2]: 26.59
caspase 30 μM [2]: 26.11
6.25 μM % Lysed cells (1 h LDH) [3]: 1%
25 μM % Lysed cells (1 h LDH) [3]: −0.5%
50 μM % Lysed cells (1 h LDH) [3]: 5%
EC50 [4]: < 5 µM
EC50 [5]: < 5 µM

SP754, Ac-tawya$r5f4CF3ek$r5lr-NH2 (peptide)
IC50 [6]: > 0.1 µM and < 1 µM
IC50 [7]: > 1 µM

SP758, Ac-tawya$s8f4CF3ekllr$r5a-NH2 (peptide)
IC50 [6]: > 0.01 µM and < 0.1 µM
IC50 [7]: > 1 µM

CC[C@H](C)[C@H](NC(=O)[C@H](C)NC(=O)[C@H](C)NC(=O)[C@]1(C)CCCC=CCCCCCC[C@@](C)(NC(=O)[C@H](Cc2ccccc2)NC(=O)[C@@H](NC(=O)[C@H](CC(C)C)NC(C)=O)[C@@H](C)O)C(=O)N[C@@H](CCC(=O)O)C(=O)N[C@@H](Cc2ccc(C(=O)O)cc2)C(=O)N[C@@H](Cc2c[nH]c3ccccc23)C(=O)N[C@@H](C)C(=O)N[C@@H](CCC(N)=O)C(=O)N[C@@H](CC2CCC2)C(=O)N1)C(=O)N[C@H](C)C(N)=O [SP249] (Ac-LTF[R8]E[Phe(4-COOH)]WAQ[Cba][S5]AAI[dA]-NH2; staple 4-11)
mice died during treatment ([8]; […] three times per week iv): 4

SP757, Ac-tawy$s8nf4CF3ekll$r5a-NH2 (peptide)
IC50 [6]: < 0.01 µM
IC50 [7]: > 1 µM

SP753, Ac-tawy$r5nf4CF3e$r5llr-NH2 (peptide)
IC50 [6]: > 0.01 µM and < 0.1 µM
IC50 [7]: > 1 µM

CC[C@]1(O)C[C@H]2CN(CCc3c([nH]c4ccccc34)[C@@](C(=O)OC)(c3cc4c(cc3OC)N(C=O)[C@H]3[C@@](O)(C(=O)OC)[C@H](OC(C)=O)[C@]5(CC)C=CCN6CC[C@]43[C@@H]65)C2)C1 [VCR, vincristine, reference compound]
order of addition: effect on cell growth, AP1 and VCR [9, 10]: suppressed DOHH-2 cell growth with or without AP1

SP154 (LTFAEYWAQAASAA; not fully specified)
% BW Change ([8]; 30 mg/kg 3x/wk iv, Days 18-39): +5.7%
No. with ≥10% BW Loss ([8]; 30 mg/kg 3x/wk iv, Days 18-39): 0/10
No. with ≥20% BW Loss or death ([8]; 30 mg/kg 3x/wk iv, Days 18-39): 0/10
tolerability of dosing regimen ([8]; 30 mg/kg three times per week iv): well-tolerated
No. with ≥10% BW Loss ([8]; 40 mg/kg 2x/wk iv, Days 18-39): 0/10
No. with ≥20% BW Loss or death ([8]; 40 mg/kg 2x/wk iv, Days 18-39): 2/10 (2 deaths)
tolerability of dosing regimen ([8]; 40 mg/kg twice a week iv): not tolerable
mice died during treatment ([8]; 40 mg/kg twice a week iv): 2

O=P1(N(CCCl)CCCl)NCCCO1 (centres unmarked) [CTX, cyclophosphamide, reference compound]
order of addition: effect on cell growth, AP1 and CTX [9, 10]: suppressed DOHH-2 cell growth with or without AP1
IC50 ([9]; CTX + 0.07 μM AP1, DOHH-2, 72 hours): 411 µM
IC50 ([9]; CTX + 0.2 μM AP1, DOHH-2, 72 hours): 172 µM
IC50 ([9]; CTX + 0.6 μM AP1, DOHH-2, 72 hours): 258 µM
IC50 ([9]; CTX alone): 1980 µM
